Experimental data as given in patent publication US11987568B2, “Allosteric inhibitor of WEE1 kinase” (H. LEE MOFFITT CANCER CENTER AND RESEARCH INSTITUTE, INC., priority 2018, dated 2024).

Key:
LNCaP cells = test: Cell cycle analysis by propidium iodide staining; assay type: cell-based, human; conditions: 16 hours
Description: To further validate this observation, LNCaP cells were treated with WEIN-159 and 172 for 16 hours and cell cycle analysis was performed by propidium iodide staining.

global histone levels = test: Global histone expression, qRT-PCR; assay type: cell-based, human; conditions: LNCaP 5 or 10 uM 16 hr; LAPC4 3.5 uM 48 hr
From the text: FIGS. 8A-8B show inhibition of WEE1 epigenetic activity lead to increased global histone expression. […] Total RNA was isolated followed by qRT-PCR with histone H3 and actin primers. […] Total RNA was isolated followed by qRT-PCR with histone H3 and actin primers.
WEIN-159 and WEIN-172 were further assessed by treatment of LNCaP and melanoma cell line B16, followed by determination of WEE1, H2B and Cdc Tyr-phopshorylation.

[1] = system: histone H2B Tyr37-phopshorylation (pY37-H2B); test: WEE1 epigenetic activity in cells: pY37-H2B immunoprecipitation/immunoblot; assay type: cell-based, human
From the text: FIGS. 2A-2B show identification of 3 distinct types of inhibitors. […] In addition, the lysates were also subjected to by immunoblotting with pY15-Cdc2 or actin antibodies (middle and bottom panels). […] The number vehicle treated cells were used as control and percent of surviving cells were plotted.
FIGS. 4A-4B show structures of ‘hits’ identified in WEE1 epigenetic inhibitor screen. […] The reaction mix was then subjected to immunoprecipitated with WEE1 antibodies, followed by immunoblotting with pTyr antibodies. […] In addition, the lysates were also subjected to immunoblotting with actin antibodies (bottom panel).
FIGS. 7A-7C show identification of WEIN-159 as a potent WEE1 epigenetic inhibitor. […] In addition, lysates were immunoprecipitated with pY37-H2B antibodies, followed by immunoblotting with H2B antibodies (middle panel). […] The lysates were also subjected to immunoblotting with pY15-Cdc2 antibodies and were immunoprecipitated with pY37-H2B antibodies, followed by immunoblotting with H2B antibodies (middle panels). In addition, the lysates were also subjected to immunoblotting with H2B antibodies (bottom panel). […] The lysates were also subjected to immunoblotting with pY15-Cdc2 antibodies and were immunoprecipitated with pY37-H2B antibodies, followed by immunoblotting with H2B antibodies (middle panels). In addition, the lysates were also subjected to immunoblotting with actin antibodies (bottom panel).
Identification of compounds with WEE1 epigenetic inhibitory role: 14 ‘hits’ that were identified in the screen are shown in FIG. 1. These compounds were further tested for their ability to inhibit WEE1 epigenetic activity. Prostate cancer derived LNCaP cells were treated with 3 uM of compounds for 48 hours. Cells were harvested, lysates were prepared, and WEE1 epigenetic activity was detected by determining histone H2B Tyr37-phopshorylation (pY37-H2B). Lysates were also assessed for WEE1 cell cycle inhibitory activity by determining Cdc2 Tyr15-phosphorylation (pY15-Cdc2). […] These are named as ‘Cell Cycle’ inhibitors. […] These compounds are the ‘Epigenetic’ inhibitors.

[2] = biological target: full length human WEE1 kinase (Homo sapiens, UniProt P30291); test: ELISA based assay: WEE1 phosphorylation of biotinylated H2B peptide spanning Tyr37; assay type: biochemical; set-up: A full length human WEE1 kinase that was enzymatically active was purified from insect cell; ELISA assay % Inhibition: concentration or dose not given beside the values; conditions: Table 3; No peptide = 100, No inhibitor = 0
From the text: Designing of a Novel inhibitor Screening Platform: […] A full length human WEE1 kinase that was enzymatically active was purified from insect cell. […] NCI diversity set compound library ( 1600 compounds) was used for the screening.

WEE1 [3] = test: Endogenous WEE1 auto-phosphorylation in cells (WEE1 IP, pTyr immunoblot); assay type: cell-based, human; conditions: LNCaP and melanoma cell line B16, 10 μM, 24 hours (FIGS. 7B and C)
Description: The reaction mix was then subjected to immunoprecipitated with WEE1 antibodies, followed by immunoblotting with pTyr antibodies (top panel). As a control, purified ACK1 protein was incubated in the reaction buffer containing ATP, in presence of 100 nM epigenetic inhibitors. The reaction mix was then subjected to immunoprecipitated with ACK1 antibodies, followed by immunoblotting with pTyr antibodies (bottom panel). […] In addition, the lysates were also subjected to immunoblotting with actin antibodies (bottom panel). […] In addition, the lysates were also subjected to immunoblotting with actin antibodies (bottom panel). […] In addition, the lysates were also subjected to immunoblotting with actin antibodies (bottom panel). To determine direct binding of these compounds causing WEE1 inhibition, a full length WEE1 kinase protein was incubated with the compounds. […] These inhibitors were further validated by assessing their ability to suppress endogenous WEEE activity; LNCaP cells were treated with 10 μM of these compounds overnight.

[4] = system: Cdc2 Tyr15-phosphorylation (pY15-Cdc2); test: WEE1 cell cycle inhibitory activity in cells: pY15-Cdc2 immunoblot; assay type: cell-based, human
From the text: FIGS. 2A-2B show identification of 3 distinct types of inhibitors. […] In addition, the lysates were also subjected to by immunoblotting with […]-Cdc2 or actin antibodies (middle and bottom panels). […] The number vehicle treated cells were used as control and percent of surviving cells were plotted. […] In addition, the lysates were also subjected to immunoblotting with actin antibodies (bottom panel). Identification of compounds with WEE1 epigenetic inhibitory role: 14 'hits' that were identified in the screen are shown in FIG. 1. These compounds were further tested for their ability to inhibit WEE1 epigenetic activity. Prostate cancer derived LNCaP cells were treated with 3 uM of compounds for 48 hours. […] Lysates were also assessed for WEE1 cell cycle inhibitory activity by determining Cdc2 Tyr15-phosphorylation ([…]-Cdc2). […] These are named as 'Cell Cycle' inhibitors. […] These compounds are the 'Epigenetic' inhibitors.

[5] = system: global histone H3K18, H3K12 and H3K9 and H4K5 acetylation; test: Global histone acetylation after treatment; assay type: cell-based
From the text: FIGS. 15A-15B show restoration of H3K18 epigenetic marks by epigenetic inhibitor of WEE1 kinase.
FIGS. 16A-16D show restoration of H4K5 and H3K12 epigenetic marks by epigenetic inhibitor of WEE1 kinase.
Global upregulation of histone H3K18 and H3K12 acetylation upon WEIN-159 treatment: To further examine the effect of WEE1 inhibition, global histone H3K18, H3K12 and H3K9 and H4K5 acetylation was examined following WEIN-159 and WEIN-172 treatment. […] In contrast, H3K9 acetylation levels were not affected.

WEE1 [6] = biological target: WEE1 (Homo sapiens, UniProt P30291); test: Pull-down assay with biotinylated inhibitor on streptavidin beads; assay type: binding; conditions: LNCaP cell lysates, WEE1 immunoblot (FIG. 11A)
Description: (§1) FIGS. 11A-11E show direct interaction between inhibitor and WEE1 kinase. […] FIGS. 11C-11E show biotinylated WEIN-159 and WEIN-172 immobilized onto streptavidin beads were incubated with lysates prepared from HEK293T cells transfected with MYC-tagged WEE1 deletion constructs, followed by immunoblotting with MYC antibodies.
(§2) Inhibitory activity of WEIN-159 and WEIN-172 was further validated by examining its direct-binding to WEE1 protein, using a pull-down assay. WEIN-159 and WEIN-172 were attached to biotin molecule (FIG. 10) and then immobilized onto streptavidin beads. Beads were incubated with cell lysate, washed and electrophoresed followed by immunoblottng with WEE1 antibodies.
(§3) To further identify region within WEE1 that may be involved in binding to inhibitor, a deletion strategy was employed wherein three deletions, A-WEE1, B-WEE1 and C-Wee1 were generated which were Myc-tagged (FIG. 11B). Constructs were transfected in HEK293T cells and lysates were incubated with biotin beads with bound WEIN-159 and 172.

WEE1 protein = test: as above; assay type: binding; conditions: lysates of transfected HEK293T cells (FIGS. 11C and D)
Description: as §1, §2, §3

[7] = LNCaP and melanoma cell line B16, 10 μM, 24 hours (FIGS. 7B and C)
[8] = LNCaP cells, 10 μM, 24 hours (FIG. 7A)

Chain of WEE1 (Homo sapiens, UniProt P30291) (P30291 whole entry): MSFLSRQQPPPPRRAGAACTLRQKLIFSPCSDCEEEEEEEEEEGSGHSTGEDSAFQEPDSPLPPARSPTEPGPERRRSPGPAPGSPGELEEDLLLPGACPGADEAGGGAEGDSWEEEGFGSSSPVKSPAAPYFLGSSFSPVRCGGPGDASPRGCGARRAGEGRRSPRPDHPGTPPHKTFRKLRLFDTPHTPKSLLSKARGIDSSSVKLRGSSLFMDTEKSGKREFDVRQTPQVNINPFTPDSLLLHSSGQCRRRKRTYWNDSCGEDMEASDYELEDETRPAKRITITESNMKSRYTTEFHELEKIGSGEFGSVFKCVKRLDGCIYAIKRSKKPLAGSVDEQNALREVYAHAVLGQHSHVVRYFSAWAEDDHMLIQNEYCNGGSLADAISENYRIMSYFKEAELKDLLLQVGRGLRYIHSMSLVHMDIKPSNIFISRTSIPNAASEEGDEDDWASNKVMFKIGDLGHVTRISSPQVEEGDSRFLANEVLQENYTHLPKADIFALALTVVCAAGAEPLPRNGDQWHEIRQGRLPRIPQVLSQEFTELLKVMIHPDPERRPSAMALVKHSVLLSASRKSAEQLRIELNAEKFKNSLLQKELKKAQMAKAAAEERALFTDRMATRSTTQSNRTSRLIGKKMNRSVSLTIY
Chain of full length human WEE1 kinase (P30291 whole entry): as above

Cl.Nc1cccc(NC(=O)c2ccc(C(=O)Nc3cccc(N)c3)s2)c1 [WEIN-172]
Cell Cycle Analysis G1 (LNCaP cells): 56.53 | Cell Cycle Analysis G2/M (LNCaP cells): 16.29 | Cell Cycle Analysis S (LNCaP cells): 27.18 | global histone levels (real time PCR of H3 and H2B) (global histone levels): significant increase in global histone levels | H2B Tyr-phopshorylation [1, 7]: significant loss of WEE1 and H2B Tyr-phopshorylation | H2B Tyr37-phopshorylation [1, 8]: almost complete loss of H2B Tyr37-phopshorylation | ELISA assay % Inhibition [2]: 112% | WEE1 Tyr-phopshorylation (WEE1 [3]): significant loss of WEE1 and H2B Tyr-phopshorylation | Cdc Tyr15-phopshorylation [4, 7]: remained unaffected | Cdc Tyr-phopshorylation [4, 8]: unaffected | H3K9 acetylation levels [5]: not affected | H3K18 acetylation ([5]; FIG. 15): significant increase in H3K18 acetylation | H3K12 acetylation ([5]; FIGS. 16 A and B): significant increase | H4K5 acetylation ([5]; FIGS. 16A and C): significant increase | binding of WEE1 protein to biotinylated inhibitor on streptavidin beads (WEE1 [6]): to lesser extent | binding to MYC-tagged WEE1 deletion constructs (WEE1 protein): only full length WEE1 interacted with inhibitor
